Some test systems named below: DU-145 prostate; MDA-MB-435; NCI-H226 lung; UACC-62 melanoma; KM12 colon; TK-10 renal; IGROV1 ovarian; UACC-257 melanoma; SK-MEL-28 melanoma; SF-295 CNS.
Assay in all cases: growth of human tumour cells (NCI), 48 h

“And” between values parts separate entries of the source, which are not always exact repeats. Equal values may be shown once.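 Dose response: 5 concentrations. Exposure: 48 h. Format: 96-well plates. Endpoint: linear interpolation; highest concentration if not reached. Abbreviation: GI50, concentration required for 50% inhibition of growth. TGI: total growth inhibition.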

Regarding `COc1cc(OCc2cccc(-c3ccc(C(O)c4nccs4)cc3)c2C)cc(OC)c1C=O` (centres undefined), the GI50 with DU-145 prostate is 2810 nM; with MDA-MB-435 it was 2220 nM; in the assay with NCI-H226 lung, 370 nM; in the assay on UACC-62 melanoma, 349 nM; in the assay on KM12 colon, 3020 nM; with TK-10 renal, 1690 nM. In addition, the GI50 with IGROV1 ovarian is 887 nM; in the assay with UACC-257 melanoma, 842 nM; in the assay on SK-MEL-28 melanoma, 2040 nM; with SF-295 CNS, 2120 nM. Besides, the TGI in the assay on DU-145 prostate was determined as 10500 nM; with MDA-MB-435, 6260 nM; with NCI-H226 lung, 2700 nM; in the assay with UACC-62 melanoma, 1920 nM; with KM12 colon, 11000 nM; in the assay on TK-10 renal it was 13700 nM. Moreover, the TGI in the assay with IGROV1 ovarian was 4840 nM; in the assay with UACC-257 melanoma it was 5110 nM; with SK-MEL-28 melanoma it was 6570 nM; with SF-295 CNS, 6580 nM.

In the case of `CC(=O)CCn1c(=S)sc2ccccc21`, the TGI with DU-145 prostate, in the assay with MDA-MB-435, in the assay on NCI-H226 lung, in the assay on UACC-62 melanoma, in the assay with KM12 colon and with TK-10 renal was > 100000 nM throughout. The TGI in the assay on IGROV1 ovarian, with UACC-257 melanoma, in the assay on SK-MEL-28 melanoma and in the assay on SF-295 CNS was > 100000 nM in each case.

In the case of `CCN(CC)CCC(CNc1ccnc2cc(Cl)ccc12)c1ccc(Cl)cc1` (centres undefined), the GI50 in the assay with DU-145 prostate was 5440 nM; in the assay with MDA-MB-435 it was 402 nM; with NCI-H226 lung, 2460 nM; in the assay on UACC-62 melanoma, 1180 nM; in the assay with KM12 colon it was 1790 nM; in the assay with TK-10 renal it was 436 nM. Further, the GI50 in the assay on IGROV1 ovarian is 2270 nM; in the assay on UACC-257 melanoma, 1020 nM; in the assay with SK-MEL-28 melanoma it was 763 nM; in the assay on SF-295 CNS it was 1020 nM. Besides, the TGI in the assay with DU-145 prostate is 17700 nM; with MDA-MB-435, 1650 nM; in the assay with NCI-H226 lung, 8190 nM; in the assay on UACC-62 melanoma it was 2690 nM; in the assay on KM12 colon, 4440 nM; with TK-10 renal it was 1630 nM. The TGI with IGROV1 ovarian worked out at 7330 nM; with UACC-257 melanoma, 2370 nM; in the assay on SK-MEL-28 melanoma, 2060 nM; in the assay with SF-295 CNS it was 2640 nM.

Turning to `COc1cccc(CC(C)=C(c2ccc(OCCN(C)C)cc2)c2ccc(OCCN(C)C)cc2)c1`, the GI50 in the assay on DU-145 prostate is 3860 nM; in the assay on MDA-MB-435, 682 nM; in the assay with NCI-H226 lung it was 4800 nM; in the assay with UACC-62 melanoma, 689 nM; with KM12 colon, 4080 nM; in the assay on TK-10 renal it was 5430 nM. In addition, the GI50 in the assay on IGROV1 ovarian is 3980 nM; with UACC-257 melanoma, 4060 nM; with SK-MEL-28 melanoma it was 602 nM; in the assay with SF-295 CNS it was 4070 nM. The TGI in the assay on DU-145 prostate turned out to be 8260 nM; in the assay with MDA-MB-435, 1370 nM; in the assay on NCI-H226 lung it was 10400 nM; with UACC-62 melanoma it was 1500 nM; in the assay with KM12 colon it was 8770 nM; in the assay with TK-10 renal, 10300 nM. Further, the TGI was found to be 8730 nM in the assay on IGROV1 ovarian, 8800 nM in the assay on UACC-257 melanoma, 1100 nM in the assay on SK-MEL-28 melanoma and 8620 nM in the assay with SF-295 CNS.

As for `O=C(Nc1ccc(Nc2ccncc2)cc1)c1ccc([N+](=O)[O-])cc1`, the GI50 in the assay with DU-145 prostate was 8870 nM; in the assay with MDA-MB-435, 5470 nM; in the assay on NCI-H226 lung it was 12100 nM; in the assay with UACC-62 melanoma, 2650 nM; in the assay with KM12 colon, 4230 nM; with TK-10 renal, 11200 nM. For the same compound, the GI50 in the assay on IGROV1 ovarian was 13000 nM; in the assay on UACC-257 melanoma it was 10500 nM; in the assay with SK-MEL-28 melanoma, 5000 nM; in the assay with SF-295 CNS, 3790 nM. In addition, the TGI in the assay with DU-145 prostate worked out at 42000 nM; with MDA-MB-435, 21200 nM; with NCI-H226 lung, 29700 nM; in the assay on UACC-62 melanoma, 9640 nM; with KM12 colon, 17300 nM; in the assay on TK-10 renal, 31300 nM. Besides, the TGI in the assay with IGROV1 ovarian was found to be 36900 nM; in the assay on UACC-257 melanoma, 26200 nM; in the assay on SK-MEL-28 melanoma, 16700 nM; with SF-295 CNS, 10300 nM.

Consider `COc1cccc2c1C(=O)c1c(O)c3c(c(O)c1C2=O)C[C@@](O)(C(=O)CO)C[C@@H]3OC1CC(N)CC(C)O1` (some centres undefined), for which the TGI in the assay on DU-145 prostate is 175 nM and 1220 nM; in the assay on MDA-MB-435 it was 283 nM and 156 nM; in the assay on NCI-H226 lung, 282 nM and 132 nM; with UACC-62 melanoma, 148 nM and 69.1 nM; in the assay on KM12 colon, 1310 nM and 1890 nM; with TK-10 renal, 1550 nM and 3450 nM. The TGI was 1250 nM and 1600 nM in the assay on IGROV1 ovarian; 330 nM and 195 nM with UACC-257 melanoma; 325 nM and 477 nM in the assay on SK-MEL-28 melanoma; 208 nM and 130 nM in the assay with SF-295 CNS. In addition, the GI50 with MDA-MB-435 is 131 nM and 32.7 nM; in the assay with NCI-H226 lung it was 9.87 nM and 72.3 nM and 43.5 nM; in the assay on UACC-62 melanoma, 30.8 nM; in the assay with KM12 colon, 79.8 nM and 51.5 nM; with TK-10 renal, 396 nM and 148 nM; in the assay on IGROV1 ovarian, 50.4 nM and 43.6 nM. Further, the GI50 in the assay with UACC-257 melanoma is 103 nM; with SK-MEL-28 melanoma, 135 nM and 93.8 nM; in the assay on SF-295 CNS, 18 nM.

On to `CCOC(=O)C(C#N)C1=CC(=O)C(=O)c2ccc(OC)cc21` (centres undefined), for which the TGI in the assay on DU-145 prostate is 38200 nM; in the assay with MDA-MB-435, 35400 nM; in the assay on NCI-H226 lung, 49700 nM; in the assay on UACC-62 melanoma it was 28500 nM; in the assay with KM12 colon it was 41300 nM; in the assay on TK-10 renal it was > 100000 nM. Moreover, the TGI in the assay on IGROV1 ovarian came to 35200 nM; in the assay on UACC-257 melanoma, 31100 nM; with SK-MEL-28 melanoma, 41400 nM; in the assay on SF-295 CNS, 58300 nM.

For the compound `CNCc1ccccc1-c1csc([C@@H](C)Nc2nc(C)nc3cc(OC)c(OC)cc23)c1`, the GI50 in the assay on DU-145 prostate is 4590 nM; in the assay with MDA-MB-435, 1750 nM; with NCI-H226 lung, 13600 nM; with UACC-62 melanoma it was 1840 nM; in the assay with KM12 colon, 3270 nM; with TK-10 renal it was 1090 nM. The GI50 with IGROV1 ovarian was 1400 nM; in the assay with UACC-257 melanoma it was 1820 nM; with SK-MEL-28 melanoma it was 1950 nM; with SF-295 CNS, 1450 nM. The TGI in the assay with DU-145 prostate came out at 15600 nM; in the assay on MDA-MB-435, 3200 nM; with NCI-H226 lung it was 32700 nM; in the assay on UACC-62 melanoma, 3430 nM; with KM12 colon, 11900 nM; in the assay on TK-10 renal it was 2520 nM. In addition, the TGI came out at 5230 nM in the assay with IGROV1 ovarian, 3510 nM in the assay with UACC-257 melanoma, 3530 nM in the assay with SK-MEL-28 melanoma and 2880 nM with SF-295 CNS.

For the origin of these results see PubChem BioAssay (NCI).
